Some results are limits rather than exact numbers.

Broadly, the GI50 is the concentration giving 50% growth inhibition. Higher therefore signals less potent growth inhibition. What is called TGI is the concentration giving total growth inhibition. Lower therefore signals more potent growth arrest.

Holding throughout (assay type): functional
The nature of experiment [1]: Anticancer activity against leukemia cells. Conditions: Homo sapiens, Leukemia cell.
The nature of experiment [2]: Anticancer activity against ovarian cancer cells. The following applies: Homo sapiens, Cancer cell lines.
Experiment [3] can be described thus: Anticancer activity against nonsmall lung cancer cells. Conditions: Homo sapiens, Cancer cell lines.
Experiment [4] is described as follows: Anticancer activity against prostate cancer cells. Conditions: Homo sapiens, Cancer cell lines.
The nature of experiment [5]: Anticancer activity against renal cancer cells. Conditions: Homo sapiens, Cancer cell lines.
Experiment [6] can be described thus: Anticancer activity against colon cancer cells. Conditions: Homo sapiens, Cancer cell lines.
Experiment [7] in a line: Anticancer activity against CNS cancer cells. The following applies: Homo sapiens, Cancer cell lines.
Experiment [8] in a line: Anticancer activity against melanoma cells. Conditions: Homo sapiens, Melanoma cell.
Experiment [9] can be described thus: Anticancer activity against breast cancer cells. Conditions: Homo sapiens, Cancer cell lines.
The nature of experiment [10]: Anticancer activity against human NCI60 cells. The following applies: for CC50: read-out: LC50 (the source's name).

For `Cc1ccc2c(c1)[n+]([O-])c(C(=O)c1ccco1)c(C(F)(F)F)[n+]2[O-]`, the GI50 in experiment [1] came to 260 nM; in experiment [2] it was 850 nM; in experiment [3], 470 nM; in experiment [4], 240 nM; in experiment [5], 580 nM; in [6], 1170 nM. The GI50 stood at 740 nM in [7], 880 nM in experiment [8], 660 nM in [9] and 660 nM in experiment [10]. This compound also returned a total growth inhibition concentration (TGI) in [10] of 3470 nM. In experiment [10], the CC50 came to 17800 nM.

For `O=C(c1ccco1)c1c(C(F)(F)F)nc2cc(C(F)(F)F)ccc2[n+]1[O-]`, the GI50 worked out at 43600 nM in [1]; 40400 nM in [2]; 47700 nM in experiment [3]; 44700 nM in [4]; 34600 nM in experiment [5]; 85400 nM in experiment [6]. The GI50 was 24400 nM in experiment [7], 80600 nM in experiment [8], 38500 nM in experiment [9] and 46800 nM in experiment [10]. Further, in [10], the TGI was 89100 nM. The CC50 in experiment [10] is > 100000 nM.

`O=C(c1ccco1)c1c(C(F)(F)F)[n+]([O-])c2cc(F)c(F)cc2[n+]1[O-]`: the GI50 was determined as 430 nM in experiment [1]; 390 nM in [2]; 730 nM in experiment [3]; 420 nM in experiment [4]; 360 nM in experiment [5]; 190 nM in experiment [6]. For the same compound, the GI50 in experiment [7] was 370 nM; in [8] it was 560 nM; in experiment [9], 200 nM; in experiment [10] it was 380 nM. This compound also showed a TGI in experiment [10] of 1480 nM. In addition, in [10], the CC50 is 7760 nM.

Take `O=C(c1ccccc1)c1c(C(F)(F)F)[n+]([O-])c2ccc(F)cc2[n+]1[O-]`: the GI50 in [1] worked out at 230 nM; in experiment [2], 1340 nM; in experiment [3], 800 nM; in experiment [4], 530 nM; in [5], 1140 nM; in [6], 540 nM. Further, the 50% growth inhibitory concentration (GI50) was 1450 nM in experiment [7], 950 nM in experiment [8], 730 nM in experiment [9] and 780 nM in experiment [10]. The TGI in [10] was determined as 2510 nM. For the same compound, in experiment [10], the CC50 was found to be 9120 nM.

As for `O=C(c1cccs1)c1c(C(F)(F)F)[n+]([O-])c2ccc(C(F)(F)F)cc2[n+]1[O-]`, the GI50 in experiment [1] stood at 200 nM; in experiment [2], 430 nM; in experiment [3], 450 nM; in experiment [4] it was 200 nM; in experiment [5], 310 nM; in [6], 380 nM. The GI50 in experiment [7] was 480 nM; in experiment [8] it was 900 nM; in [9], 500 nM. In addition, the CC50 in experiment [10] worked out at 5500 nM.

Take `O=C(c1cccs1)c1c(C(F)(F)F)[n+]([O-])c2ccc(F)cc2[n+]1[O-]`: the GI50 is 270 nM in experiment [1]; 1170 nM in [2]; 1680 nM in experiment [3]; 1510 nM in experiment [4]; 1650 nM in [5]; 920 nM in experiment [6]. Besides, the GI50 was 1630 nM in experiment [7], 1510 nM in experiment [8], 1190 nM in experiment [9] and 1200 nM in experiment [10]. In addition, in [10], net growth stopped (TGI) at 2880 nM. Further, in experiment [10], the CC50 came out at 9330 nM.

Turning to `O=C(c1ccco1)c1c(C(F)(F)F)[n+]([O-])c2ccccc2[n+]1[O-]`, the GI50 in experiment [1] was found to be 70 nM; in experiment [2], 1450 nM; in [3], 350 nM; in [4], 200 nM; in [5], 330 nM; in experiment [6] it was 510 nM. Further, the GI50 in experiment [7] came to 400 nM; in experiment [8], 670 nM; in experiment [9] it was 760 nM; in experiment [10] it was 410 nM. Also, the TGI in [10] is 5130 nM. Besides, the CC50 in experiment [10] was 26900 nM.

Regarding `O=C(c1ccco1)c1c(C(F)(F)F)[n+]([O-])c2ccc(C(F)(F)F)cc2[n+]1[O-]`, the GI50 in experiment [1] came out at 210 nM; in [2], 720 nM; in experiment [3] it was 760 nM; in [4] it was 420 nM; in experiment [5], 430 nM; in experiment [6], 570 nM. Moreover, the GI50 in experiment [7] is 910 nM; in experiment [8] it was 1110 nM; in [9] it was 570 nM; in experiment [10] it was 600 nM. In experiment [10], the TGI stood at 1480 nM. Moreover, the CC50 in experiment [10] is 5010 nM.

Regarding `O=C(c1cccs1)c1c(C(F)(F)F)[n+]([O-])c2ccccc2[n+]1[O-]`, the GI50 worked out at 13900 nM in experiment [1]; 750 nM in experiment [2]; 350 nM in [3]; 400 nM in experiment [4]; 480 nM in [5]; 830 nM in [6]. Further, the GI50 is 1450 nM in [7], 1390 nM in experiment [8], 850 nM in experiment [9] and 980 nM in experiment [10]. For the same compound, the TGI in experiment [10] turned out to be 3890 nM. Also, the CC50 in [10] was 11200 nM.

For the compound `O=C(c1ccco1)c1c(C(F)(F)F)[n+]([O-])c2cc(C(F)(F)F)ccc2[n+]1[O-]`, the GI50 in experiment [1] was found to be 130 nM; in [2], 650 nM; in [3], 480 nM; in [4], 190 nM; in [5], 490 nM; in experiment [6] it was 280 nM. Moreover, the GI50 in experiment [7] was 810 nM; in experiment [8] it was 860 nM; in experiment [9] it was 480 nM; in experiment [10], 470 nM. This compound displayed a TGI in experiment [10] of 1200 nM. In addition, in experiment [10], the CC50 is 3890 nM.

Consider `O=C(c1ccco1)c1nc2ccc(C(F)(F)F)cc2[n+]([O-])c1C(F)(F)F`, for which the GI50 worked out at 48400 nM in [1]; 43000 nM in [2]; 41900 nM in [3]; 35100 nM in [4]; 49700 nM in experiment [5]; 75100 nM in experiment [6]. Also, the GI50 is 35500 nM in experiment [7], 46100 nM in [8], 59100 nM in experiment [9] and 47900 nM in [10]. In [10], this compound came in with a TGI of 95500 nM. Further, in [10], the CC50 was > 100000 nM.

With `O=C(c1ccc2ccccc2c1)c1c(C(F)(F)F)[n+]([O-])c2cc(C(F)(F)F)ccc2[n+]1[O-]`, the GI50 in experiment [1] worked out at 1200 nM; in experiment [2], 1690 nM; in [3] it was 1780 nM; in [4] it was 1510 nM; in [5], 1550 nM; in experiment [6] it was 1730 nM. Besides, the GI50 in [7] is 1720 nM; in experiment [8], 1480 nM; in experiment [9], 1670 nM; in experiment [10], 1580 nM. Besides, the TGI in experiment [10] is 3470 nM. For the same compound, the CC50 in [10] is 9330 nM.

As to `O=C(c1cccs1)c1c(C(F)(F)F)[n+]([O-])c2ccc(Cl)cc2[n+]1[O-]`, the 50% growth inhibitory concentration (GI50) in experiment [1] was determined as 70 nM; in experiment [2], 160 nM; in experiment [3] it was 70 nM; in [5], 30 nM; in [6], 40 nM; in experiment [7] it was 90 nM. In addition, the GI50 in [8] was 120 nM; in experiment [9], 80 nM; in experiment [10], 70 nM. Moreover, in experiment [10], the TGI was found to be 500 nM. Also, the CC50 in experiment [10] was 2190 nM.

(Values after ChEMBL document CHEMBL1137558, “Synthesis and biological evaluation of new 2-arylcarbonyl-3-trifluoromethylquinoxaline 1,4-di-N-oxide derivatives and their reduced analogues” (2007).)
